Laboratory results: patent US20240082221A1, “COMPOSITIONS AND METHODS FOR THE IDENTIFICATION OF COMPOUNDS THAT PROTECT AGAINST LIPOFUSCIN CYTOTOXICITY” (priority 2021, published 2024)

Test system: cathepsin D
Type: cell-based
Excerpt: Next, A2E buildups were imaged using a combination of DIC and fluorescence: A2E appeared as granules with well-defined edges, both within cells or after drying over a coverslip (FIGS. 14D and 14E). Next, the ability of the suspected A2E crystals to damage lysosomal membranes was investigated. A recently developed galectin-3 puncta assay for early detection of lysosomal membrane permeabilization (LMP) was used. Briefly, cytosolic galectin-3 rapidly binds to the glycocalyx in the luminal face of lysosomal membranes as they become leaky, which is easily detectable with anti-galectin high-affinity antibodies. L-Leucyl-L-Leucine methyl ester (LLO) a lysosomotropic peptide that causes LMP was used as positive control of puncta formation (FIG. 14E). […] LMP was confirmed by showing the […] of cathepsin D, as surrogate of lysosomal enzymes. […] Also, very remarkable was the observation that the same unique pattern of protection with arimoclomol and Nec-7 but not Nec-1 was observable for LLO (FIG. 14K), consistent with the idea that necroptosis by A2E is being caused by LMP.

SMILES: N=C1S/C(=C\c2cn[nH]c2-c2ccc(F)cc2)C(=O)N1c1nccs1 [Nec7, Necrostatin 7]
- effect on loss of cathepsin-D activity caused by A2E: prevented
